Measurements: PMC8991960, “A Bivalent Activatable Fluorescent Probe for Screening and Intravital Imaging of Chemotherapy‐Induced Cancer Cell Death” (Angewandte Chemie (International Ed. in English), 2021)

Test system: MMTV-PyMT mammary gland tumours
Assay: Intravital imaging of cisplatin-induced apoptosis in breast cancer model
Format: in vivo, mouse
Conditions: cisplatin 10 mg kg-1 i.p., Apotracker Red 650 ng i.v. 72 h later, two-photon microscopy, MMTV-PyMT;ACTB-ECFP mice
Excerpt: Optical intravital imaging is increasingly used for the preclinical evaluation of anticancer drugs in vivo. Although imaging modalities like computed tomography, positron emission tomography and magnetic resonance imaging can help to visualise whole intact organs in a non‐invasive manner,[26] they lack the spatiotemporal resolution needed to study dynamic interactions between individual tumour and stromal cells. This feature is critical to understand the mechanism of action of anticancer drugs and how they can affect interactions between cancer cells and immune cells in the tumour microenvironment.[27] Intravital imaging heavily relies on the acquisition of fluorescence signals using multiphoton microscopy, which provides cellular resolution with deep tissue penetration (≈500 μm) and minimal photodamage.[28] […] First, we analysed the chemical stability of Apotracker Red for in vivo studies by incubating the probe in mouse serum. […] When primary tumours measured around 0.5–1 cm in diameter, we administered cisplatin intraperitoneally (10 mg kg^−1). […]
were centrifuged (300 g, 5 min, r.t.), washed once with PBS before addition of 0.05% Trypsin, 0.02% ethylenediaminetetraacetic acid (EDTA) in Hank’s balanced salt solution (HBSS) and incubation at 37°C for 5 min. […] Histograms and mean fluorescence intensities of apoptotic cells were measured on a 5L LSR flow cytometer under the following […]

Question: For `N.N.[Cl][Pt][Cl]` [cisplatin], which “Apotracker Red fluorescence in tumours of treated mice (intravital imaging)” value is on record?
Answer: Its value is “strong red fluorescent signals indicating cancer cell death induced by the drug”.
